Experimental findings from patent publication US8119627B2 (Sterix Limited, priority 2005, dated 2012) are described below.

Series [1] concerns the target T1, human 17β-HSD3 (Homo sapiens, UniProt P37058).
T1 construct: expressed in transfected cells; host or cells: 293-EBNA cells (human), stably transfected
T1 sequence (P37058 1-310): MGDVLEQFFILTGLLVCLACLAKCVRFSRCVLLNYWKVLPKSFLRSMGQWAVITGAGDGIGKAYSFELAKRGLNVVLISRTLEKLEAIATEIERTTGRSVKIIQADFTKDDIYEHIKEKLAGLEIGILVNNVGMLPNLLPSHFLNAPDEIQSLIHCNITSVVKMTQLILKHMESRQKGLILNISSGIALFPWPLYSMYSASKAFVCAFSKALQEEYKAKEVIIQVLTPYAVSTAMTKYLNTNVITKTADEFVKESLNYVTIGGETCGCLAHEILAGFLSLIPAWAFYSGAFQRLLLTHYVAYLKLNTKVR
As to the kind of experiment: 17β-Hydroxysteroid dehydrogenase Type 3 activity in stably transfected 293-EBNA cells (3H-androstenedione to testosterone conversion). The class given is cell-based. The settings on record: 10 μM test compound; 293-EBNA cells stably transfected with 17β-HSD Type 3; 2-3 nM 3H-androstenedione; 2 hours. The protocol:
Assay Protocol—17β-Hydroxysteroid Dehydrogenase Type 3 Activity in the Presence of Regulatory Agents
293-EBNA cells stably transfected with 17β-HSD Type 3 were plated at 50,000 cells/well in 24 well plates in complete growth medium. After 48 hours 2-3 nM ^3H-Androstenedione in assay medium (500 ml MEME medium with 5 ml 100× Pen/Strep, 5 ml 100×L-Glutamine, 5 ml 100×NEAA and 5 ml 7.5% sodium bicarbonate solution) was added with or without test compound at 1.5 ml/well (triplicate), and the cells incubated at 37° C.
Two hours later 1 ml medium was removed from each well and placed in a 125×16 mm glass test tube containing 25 μl of recovery solution (5000 dpm ^14C-Testosterone and 25 μg unlabelled Testosterone). Ether (4 ml) was added and the tubes vortexed at high speed for 2×30 sec. After the samples had settled into two phases they were snap-frozen in a dry ice/methanol bath. The upper organic phase was decanted into 75×12 mm tubes and evaporated to dryness under an airstream using a sample concentrator (TECHNE) at 40° C. The samples were resuspended in ether (8 drops, then a further 3), spotted onto silica 60 F254 20 cm×20 cm TLC plates, and separated using a 4:1 v/v dichloromethane:ethyl acetate mobile phase.
After drying the plates, the major spots were marked under a UV lamp, cut out, and placed in individual scintillation vials containing 0.5 ml methanol. These were then shaken lightly and allowed to stand for 15 min before adding 10 ml of EcoScint A (scintillation fluid) to each tube along with 0.5 ml assay medium, and counted in a scintillation spectrometer (Beckman) using a program for dual [^3H/^14C] isotopes. The number of cells/well was then counted using a Coulter counter (Beckman).
The inhibitory activity of the test compounds is then assessed by calculating the amount of product formed correcting for crossover between isotope counts, recovery, dilution and non-enzymatic degradation (fmol/hr/million cells) with and without inhibitor, (% inhibition).
Compounds were tested at 10 μM for inhibition of human 17β-HSD3 with typically […] human 293-EBNA cells/well.

One may read the inhibition as the drop in the measured response relative to a control, in per cent. In general, melting point refers to the temperature, or range, at which the solid turns liquid.

Structures can show the parent of a compound that is named as a salt.

In turn, `O=C(c1ccccc1)N1CCC(Nc2ccccc2Oc2ccc(Cl)cc2)CC1` displayed an inhibition at 10 µM in series [1] of over 60%.
The molecule `O=C(Nc1ccccc1Oc1ccc(Cl)cc1Cl)C1CCN(S(=O)(=O)c2cc(Cl)ccc2Cl)CC1` displayed a melting point of 194 to 196 °C.
On the same count and under the same terms, in the case of `CC(C)C(=O)N1CCC(NC(=O)c2ccccc2Oc2ccc(Cl)cc2Cl)CC1` it was 51 to 54 °C.
On the same count and under the same terms, in the case of `O=C(NC1CCN(C(=O)c2ccccc2)CC1)c1ccccc1Oc1ccc(Cl)cc1Cl` it was 63 to 66 °C.
Turning to `CC(=O)N1CCC(C(=O)Nc2ccccc2Oc2cc(Cl)cc(Cl)c2)CC1` [STX1604, 1-Acetyl-piperidine-4-carboxylic acid [2-(3,5-dichloro-phenoxy)-phenyl]-amide], the inhibition at 10 µM in series [1] fell in the range of 20 to 60%.
The same measure, in the same setting: in the case of `O=C(Nc1ccccc1Oc1cc(Cl)cc(Cl)c1)C1CCN(C(=O)c2ccccc2)CC1` [STX1605, 1-Benzoyl-piperidine-4-carboxylic acid [2-(3,5-dichloro-phenoxy)-phenyl]-amide] it was 20 to 60%; in that of `CC(=O)N1CCC(C(=O)Nc2ccccc2Oc2ccc(C(F)(F)F)cc2)CC1` [STX1606, 1-Acetyl-piperidine-4-carboxylic acid [2-(4-trifluoromethyl-phenoxy)-phenyl]-amide], 20 to 60%; in that of `O=C(Nc1ccccc1Oc1ccc(C(F)(F)F)cc1)C1CCN(C(=O)c2ccccc2)CC1` [STX1607, 1-Benzoyl-piperidine-4-carboxylic acid [2-(4-trifluoromethyl-phenoxy)-phenyl]-amide], 20 to 60%.
In turn, `O=C(Nc1ccccc1Oc1ccc(Cl)cc1Cl)C1CCN(C(=O)c2ccccc2)CC1` [STX1613, 1-Benzoylpiperidine-4-carboxylic acid [2-(2,4-dichloro-phenoxy)phenyl]amide] displayed a melting point of 176 to 177 °C. The molecule further had an inhibition at 10 µM in series [1] of 20 to 60%.
For `CC(=O)N1CCC(C(=O)Nc2ccccc2Oc2ccc(Cl)cc2Cl)CC1` [STX1614, 1-Acetylpiperidine-4-carboxylic acid [2-(2,4-dichlorophenoxy)phenyl]amide] the same measures were 194 to 196 °C and over 60%.
For `O=C(Nc1ccccc1Oc1ccc(Cl)cc1)C1CCN(C(=O)c2ccccc2)CC1` [STX1615, 1-Benzoylpiperidine-4-carboxylic acid [2-(4-chlorophenoxy)phenyl]amide], the melting point lay in the range of 158 to 160 °C. The inhibition at 10 µM in series [1] is under 20%.
The molecule `CC(=O)N1CCC(Nc2ccccc2Oc2ccc(Cl)cc2Cl)CC1` [STX1616, 1-{4-[2-(2,4-Dichlorophenoxy)phenylamino]piperidin-1-yl}ethanone] came in with a melting point of 145 to 146 °C. The same molecule yielded an inhibition at 10 µM in series [1] of over 60%.
For the molecule `CC(=O)N1CCC(C(=O)Nc2ccccc2Oc2ccc(Cl)cc2)CC1` [STX1617, 1-Acetylpiperidine-4-carboxylic acid [2-(4-chlorophenoxy)phenyl]amide], the melting point fell in the range of 195 to 196 °C. The same molecule yielded an inhibition at 10 µM in series [1] of 20 to 60%.
In the case of `O=C(c1ccccc1)N1CCC(Nc2ccccc2Oc2ccc(Cl)cc2Cl)CC1` [STX1623, {4-[2-(2,4-Dichlorophenoxy)phenylamino]piperidin-1-yl}phenylmethanone], in series [1], the inhibition at 10 µM was over 60%.
Same read-out and setting: in the case of `CC(=O)N1CCC(C(=O)Nc2ccccc2Oc2ccc(OC(F)(F)F)cc2)CC1` [STX1624, 1-Acetyl-piperidine-4-carboxylic acid [2-(4-trifluoromethoxy-phenoxy)-phenyl]-amide] it was 20 to 60%; in that of `O=C(Nc1ccccc1Oc1ccc(OC(F)(F)F)cc1)C1CCN(C(=O)c2ccccc2)CC1` [STX1625, 1-Benzoyl-piperidine-4-carboxylic acid [2-(4-trifluoromethoxy-phenoxy)-phenyl]-amide], 20 to 60%; in that of `CC(=O)N1CCC(Nc2ccccc2Oc2ccc(Cl)cc2)CC1` [STX1629, 1-{4-[2-(4-chlorophenoxy)phenylamino]-piperidin-1-yl}-ethanone], over 60%.
The molecule `CC(C)(C)C(=O)N1CCC(Nc2ccccc2Oc2ccc(Cl)cc2)CC1` [STX1631, 1-{4-[2-(4-chlorophenoxy)phenylamino]-piperidin-1-yl}-2,2-dimethylpropan-1-one] registered an inhibition at 10 µM in series [1] of 20 to 60%.
Same read-out and setting: in the case of `CC(=O)N1CCCC(Nc2ccccc2Oc2ccc(Cl)cc2)CC1` (stereo not shown) [STX1762, 1-(4-(2-(4-chlorophenoxy)phenylamino)azepan-1-yl)ethanone] it was over 60%; in that of `O=C(c1ccco1)N1CCC(Nc2ccccc2Oc2ccc(Cl)cc2Cl)CC1` [STX1779, {4-[2-(2,4-Dichloro-phenoxy)-phenylamino]-piperidin-1-yl}-furan-2-yl-methanone], 20 to 60%.
Same read-out and setting: the figure for `CC(=O)NC(CC(=O)Nc1ccccc1Oc1ccc(Cl)cc1)c1ccccc1` (stereo not shown) [STX1858, N-[2-(4-chlorophenoxy)phenyl]-3-acetamido-3-phenylpropanamide] is under 20%; for `CC(=O)NCCC(=O)Nc1ccccc1Oc1ccc(Cl)cc1` [STX1859, N-[2-(4-chlorophenoxy)phenyl]-3-acetamidopropanamide] it is under 20%; for `CC(=O)N1CCC(Nc2ccccc2-c2ccc(Cl)cc2)CC1` [STX2044, 1-[4-(4′-Chlorobiphenyl-2-ylamino)piperidin-1-yl]ethanone] it is 20 to 60%.
With `CC(=O)N1CCC(Nc2ccccc2-c2ccccc2Oc2ccccc2)CC1` [STX2048, 1-[4-(2′-Phenoxybiphenyl-2-ylamino)piperidin-1-yl]ethanone hydrochloride], in series [1], the inhibition at 10 µM was in the range of 20 to 60%.
Same read-out and setting: in the case of `CC(=O)N1CCC(Nc2ccccc2Oc2ccc(Cl)cc2)c2ccccc21` (stereo not shown) [STX2138] it was 20 to 60%; in that of `CC(=O)N1CCCC(Nc2ccccc2Oc2ccc(Cl)cc2)c2ccccc21` (stereo not shown) [STX2171, 1-Acetyl-5-[2-(4-Chloro-phenoxy)-phenylamino]-2,3,4,5-tetrahydro-benzo[b]azepine], over 60%; in that of `CC(=O)N1CCC(Nc2ccccc2Oc2ccc(Cl)cc2)CC1c1ccccc1` (stereo not shown) [STX2419, 1-(4-(2-(4-Chlorophenoxy)phenylamino)-2-phenylpiperidin-1-yl)ethanone], 20 to 60%.
Still for that read-out and setting: the figure for `CC(=O)N1CCC(Nc2ccccc2Oc2ccc(Cl)cc2)CC1C(C)C` (stereo not shown) [STX2523, 1-(4-(2-(4-Chlorophenoxy)phenylamino)-2-iso-propylpiperidin-1-yl)ethanone] is over 60%; for `CC(=O)N1CC(N(Cc2ccccc2Oc2ccc(Cl)cc2)C(C)=O)Cc2ccccc21` (stereo not shown) [STX2525, N-(1-Acetyl-1,2,3,4-tetrahydro-quinolin-3-yl)-N-[2-(4-chloro-phenoxy)-benzyl]-acetamide] it is 20 to 60%.
